Reference: US20110251253A1, “SOLID FORMS OF (R)-1-(2,2-DIFLUOROBENZO[D][1,3]DIOXOL-5-YL)-N-(1-(2,3-DIHYDROXYPROPYL)-6-FLUORO-2-(1-HYDROXY-2-METHYLPROPAN-2-YL)-1H-INDOL-5-YL) CYCLOPROPANECARBOXAMIDE” (VERTEX PHARMACEUTICALS INCORPORATED, priority 2010, published 2011)

Test: Solubility of Compound 1 in solvents
Type: physicochemical

solubility (acetonitrile, methanol, ethanol, isopropyl alcohol, acetone, organic solvent or mixture): > 20 mg/mL | solubility (organic solvent or mixture, first solvent, e.g. ethyl acetate, ethanol, isopropyl alcohol, or acetone): > 20 mg/mL | solubility (second solvent, for example heptane or water): < 1 mg/mL
SMILES: CC(C)(CO)c1cc2cc(NC(=O)C3(c4ccc5c(c4)OC(F)(F)O5)CC3)c(F)cc2n1C[C@@H](O)CO [Compound 1, (R)-1-(2,2-difluorobenzo[d][1,3]dioxol-5-yl)-N-(1-(2,3-dihydroxypropyl)-6-fluoro-2-(1-hydroxy-2-methylpropan-2-yl)-1H-indol-5-yl)cyclopropanecarboxamide]
